# Assay: Gastrointestinal absorption and retention in the thyroid gland after taking hydrogen iodide into the body
# Assay type: in vivo
# Settings: through gastrointestinal absorption
# Procedure: When taking hydrogen iodide into the body, the hydrogen iodide reaches to the thyroid gland within 30 minutes through gastrointestinal absorption. Since the hydrogen iodide is retained in the thyroid gland for about two hours, it is preferable to take the health food or the pharmaceutical product every two hours in a serious case. Moreover, it is preferable to take them not in large quantities at one time, but in small quantities frequently on an empty stomach.
compound,measurement,value
I [hydrogen iodide],time to reach the thyroid gland,≤ 30 min
